Source: patent publication US20090175905A1, “TRANSFECTION REAGENT AND METHOD FOR ENHANCING TRANSFECTION EFFICIENCY” (National Taiwan University of Science and Technology, priority 2008, published 2009)
Where two headings read alike, the source gives them in different places.

Assays:
[1] = tested on: CHO cells
From the text: (§3) FIG. 5 presents the effects of disaccharides on the cellular cytotoxicity of the in vitro cultured CHO cells transfected with transfection reagents containing lipid-based carriers.

[2] = tested on: lung tissues; test: In vivo transfection by tail vein injection of gWiz-luciferase plasmid with lipid-based vectors plus disaccharides, luciferase activity in lung; parameters: species or system mouse; conditions: for effect on transfection efficiency (luminescent intensity, lung): DOTAP, DOTAP/Chol or LPD vector, i.v.
Protocol: FIG. 4A presents the effects of disaccharides on the transgene expression after intravenous injection of DOTAP-based vectors with various disaccharides by way of mouse tail vein. Various concentrations of […] and […] are respectively incorporated into the transfection reagent containing the gWiz-luciferase plasmid and DOTAP liposomes. The transfection reagent is administered via intravenous injection through the tail vein of a 4-6 weeks old ICR (CD-1) […]. The […] is sacrificed 24 hour after the intravenous injection, and the activity of luciferase in the lung tissues of the […] is observed. The x-axis in FIG. 4A represents the disaccharide concentration in the tranfection reagent, and the y-axis in FIG. 4 represents the luminescent intensity, measured by a luminometer and expressed as relative light unit (RLU) per mg of lung tissue protein. The luminescent intensity is used as an indicator of transfection efficiency. […] Accordingly, cellobiose and trehalose can improve the efficiency of cell transfection in vivo, and the transfection efficiency increases as the concentration of the disaccharide increases. FIG. 4B presents the effects of disaccharides on the transgene expression after intravenous injection of different lipid-based vectors with various disaccharides by way of mouse tail vein. DOTAP, DOTAP/chol and LPD are respectively added as a vector into the tranfection reagent containing gWiz-luciferase plasmid. A concentration of 330 mM cellobiose or trehalsoe is incorporated into the transfection reagent. The transfection reagent is then intravenously injected into the animal for cell transfection. The x-axis in FIG. 4B represents the type of the lipid-based vector, and the y-axis in FIG. 4B represents the luminescent intensity, measured by a luminometer and expressed as relative light unit (RLU) per mg of lung tissue protein.

[3] = tested on: Chinese hamster ovary (CHO) cells; test: In vitro transfection of CHO cells with pEGFP-C1 plasmid and DOTAP liposomes plus disaccharides, GFP by flow cytometer; format: cell-based; conditions: DOTAP liposomes; for effect on transfection efficiency: appropriate amount of disaccharide
From the text: FIG. 2 present the effects of disaccharides on the transgene expression of cultured Chinese hamster ovary (CHO) cells subjected to an in vitro transfection of DNA with a transfection reagent containing DOTAP and various disaccharides. The x-axis in FIG. 2 refers to the disaccharide concentration in the transfection reagent, and the y-axis in FIG. 2 represents the GFP (green fluorescent protein)-positive percentage of the transfected CHO cells measured by a flow cytometer. The GFP-positive percentage of the CHO cells is used as an indicator of transfection efficiency. In the experiments shown in FIG. 2, various concentrations of cellobiose, lactose, sucrose, trehalose and maltose are respectively incorporated into a transfection reagent containing pEGFP-C1 plasmid and DOTAP liposomes, and in vitro transfections are performed with the transfection reagents containing different disaccharides. The GFP-positive percentage of CHO cells is then detected for each transfection reagent sample. […] In other words, the incorporation of a disaccharide into the transfection reagent affects the transfection efficiency. Moreover, the changes in transfection efficiency are related to the type and the concentration of the disaccharide in the transfection reagent. […] More particularly, the transfection efficiency increases from 28% to more than 40% at 180 mM of lactose, sucrose or trehalose in a transfection reagent. The transfection efficiency is doubled when 120 mM of cellobiose is incorporated into a transfection reagent.

[4] = tested on: Chinese hamster ovary (CHO) cells; test: In vitro transfection of CHO cells with different lipid-based vectors plus disaccharides, GFP-positive percentage; format: cell-based; conditions: 120 mM disaccharide; DOTAP, DOTAP/Chol, DOTAP/DOPE, DC-Chol/DOPE or LPD vector
From the text: FIGS. 3A and 3B present the effects of disaccharides on the transgene expression of cultured Chinese hamster ovary (CHO) cells subjected to an in vitro transfection of DNA with a transfection reagent containing different lipid-based vectors plus different disaccharides. The x-axis in FIGS. 3A and 3B represents the lipid composition, and the y-axis represents the GFP-positive percentage of the transfected CHO cells, which is used as an indicator for transfection efficiency. In the experiments shown in FIGS. 3A and 3B, DOTAP, DOTAP/Chol, DOTAP/DOPE, DC-Chol/DOPE or LPD applied as a vector is incorporated into a pEGFP-C1 plasmid-containing transfection reagent. Thereafter, 120 mM of various disaccharides is incorporated into the transfection reagent, and in vitro cell transfection is performed followed by detecting the cell percentage of GFP expression.

[5] = tested on: mouse muscles; test: In vivo transfection of muscles by direct intramuscular injection of naked plasmid plus disaccharides, luciferase luminescence; conditions: for luminescent intensity (RLU per mg of muscular tissue protein) versus control group without disaccharides: 10 mM disaccharide
Protocol: The following experiments are conducted using naked nucleic acid delivery system for directly transfecting plasmid DNA into the cells of animals, and additional viral or non-viral vector is precluded. The transfection reagent is incorporated with various concentrations of disaccharides as an enhancer, and the effects of disaccharides in the naked nucleic acid delivery system on the cell transfection are observed.
FIG. 9 presents the effects of various disaccharides on the transgene expression of mouse muscles after direct intramuscular injection of naked plasmid. The transfection procedures in these experiments are identical to those described previously in experiment 3. The major differences between the two experiments are the vector applied and the method of transfection as well as the administration route into the body of the […]. The x-axis in FIG. 9 represents the types of disaccharides, and the y-axis represents the luminescent intensity, measured by a luminometer and expressed as relative light unit (RLU) per mg of muscular tissue protein, wherein the luminescent intensity is used as an indicator to evaluate the transfection efficiency.
FIG. 10 presents the effects of trehalose concentrations on the transgene expression of mouse muscles after direct intramuscular injection of naked plasmid. The x-axis in FIG. 10 represents the concentrations of trehalose in the transfection reagent, and the y-axis represents the luminescent intensity, measured by a luminometer and expressed as relative light unit (RLU) per mg of muscular tissue protein. The luminescent intensity is used as an indicator to evaluate transfection efficiency.
[…] presents the effects of gene dosage on the transgene expression of mouse muscles in the presence of trehalose after direct intramuscular injection of naked plasmid. The x-axis in FIG. 11 represents the amount of DNA plasmid, and the y-axis represents the luminescent intensity, measured by a luminometer and expressed as relative light unit (RLU) per mg of muscular tissue protein, wherein the luminescent intensity is used as an indicator to evaluate the transfection efficiency.
FIG. 12 presents the effects of the trehalose on the durations of transgene expression of mouse muscles after direct intramuscular injection of naked plasmid. The x-axis in FIG. 12 represents the days after the intramuscular injection, and the y-axis represents the luminescent intensity, measured by a luminometer and expressed as relative light unit (RLU) per mg of muscular tissue protein, wherein the luminescent intensity is used as an indicator to evaluate the transfection efficiency of gWiz-luciferase plasmid. […] In other words, trehalose might extend the durations of nucleic acid remaining inside the cells, and therefore prolonged the durations of transgene expression.

[6] = tested on: CHO cells; test: MTT cellular viability of CHO cells transfected with DNA-PEI complexes plus trehalose; format: cell-based, Chinese hamster; conditions: PEI to DNA charge ratio 9:1; nontransfected CHO cells = 100%
From the text: The x-axis in FIG. 5 represents different trehalose concentrations and the y-axis represents cellular viability analyzed by the MTT assay. In the experiments, the PEI to DNA charge ratio in the transfection reagent is maintained at 9:1, and the viability of nontransfected CHO cells is set at 100%. […] In other words, the incorporation of trehalose mitigates the toxic effect of the transfection reagent.

[7] = tested on: KB; test: DNA-PEI transfection with trehalose, GFP expression percentage, KB; format: cell-based; conditions: 20 mM trehalose
From the text: (§1) FIG. 6 presents the effects of disaccharides on the transfection efficiency of in vitro cultured CHO cells that are transfected with transfection reagents containing PEI and different disaccharides. The x-axis in FIG. 6 represents the concentrations of different disaccharide in the transfection reagent, and the y-axis represents the GFP expression percentage of the transfected CHO cells detected by a flow cytometer. The GFP expression percentage of the transfected CHO cells is used as an indicator of transfection efficiency. […] The effect of disaccharides in the transfection reagent on transfection efficiency is then analyzed. […] In other words, the cell transfection efficiency is enhanced.
(§2) FIGS. 7A and & 7B show the optimal trehalose concentrations for enhancing the transfection expression mediated by DNA-PEI complexes in different cell lines. The x-axis in FIGS. 7A and 7B […] represents the concentrations of trehalose in the transfection reagent, and the y-axis represents the GFP expression percentage of the cells as an indicator of transfection efficiency The transfection procedures in these experiments of different cell lines are identical to those described previously for CHO cells in experiment 5. […] Moreover, the extents of enhancement on the transfection efficiency depend on the cell lines. […]

[8] = tested on: CHO cells; test: In vitro transfection of CHO cells with DNA-PEI plus disaccharides, GFP by flow cytometer; format: cell-based, Chinese hamster; conditions: PEI to DNA charge ratio 9:1
From the text: In the following experiments, a polyethyleneimine (PEI)-based vector is used to perform cell transfection. Further, various disaccharides are incorporated into the transfection reagent containing DNA and the vector, and the effects of disaccharides on cell transfection are observed.
as §1

[9] = tested on: B16F10; test: DNA-PEI transfection with trehalose, GFP expression percentage, B16F10; format: cell-based; conditions: 20 mM trehalose
From the text: as §1, §2

[10] = tested on: COS-7 cells; test: DNA-PEI transfection with trehalose, GFP expression percentage, COS-7; format: cell-based; conditions: 180 mM trehalose
From the text: as §1, §2

[11] = tested on: MDA-MB-231; test: DNA-PEI transfection with trehalose, GFP expression percentage, MDA-MB-231; format: cell-based; conditions: 20 mM trehalose, MDA-MD-231
From the text: as §1, §2

[12] = tested on: CHO cells; test: MTT cellular viability of CHO cells transfected with lipid-based carriers plus disaccharides; conditions: DOTAP, DOTAP/Chol, DOTAP/DOPE or LPD vector; nontransfected CHO cells = 100%
From the text: as §3

[13] = tested on: 293 cells; test: DNA-PEI transfection with trehalose, GFP expression percentage, 293; format: cell-based; conditions: 180 mM trehalose
From the text: as §1, §2

[14] = DOTAP liposomes, i.v. tail vein, 24 hour, 180 mM disaccharide
[15] = DOTAP liposomes, i.v. tail vein, 24 hour, 330 mM disaccharide

Row | SMILES | cellular viability analyzed by the MTT assay [1] | effect on transfection efficiency (luminescent intensity, lung) ([2]; 330 mM disaccharide) | luminescent intensity in the lung tissue (RLU per mg of lung tissue protein) [2, 14] | luminescent intensity in the lung tissue (RLU per mg of lung tissue protein) [2, 15] | effect on transfection efficiency [3] | effect on transfection efficiency (GFP-positive percentage) [4] | luminescent intensity (RLU per mg of muscular tissue protein) versus control group without disaccharides ([5]; naked plasmid) | further results
1 | O=C[C@H](O)[C@@H](O)[C@H](O[C@@H]1O[C@H](CO)[C@@H](O)[C@H](O)[C@H]1O)[C@H](O)CO [cellobiose] | improve the cellular viabilities | significant increase in transfection efficiency | increase the luminescent intensity significantly | increases noticeably | increases significantly | significantly enhances the transfection efficiency |  | increase of luciferase expression of lung [2, 15]: more than 10 fold; change of transfection efficiency ([3]; 120 mM cellobiose): doubled
2 | OC[C@H]1O[C@@H](O[C@H]2[C@H](O)[C@@H](O)C(O)O[C@@H]2CO)[C@H](O)[C@@H](O)[C@H]1O (stereo partly drawn) [lactose] | improve the cellular viabilities |  |  |  | increases significantly | significantly enhances the transfection efficiency | higher luminescent intensity | 
3 | OC[C@H]1O[C@H](O[C@H]2[C@H](O)[C@@H](O)[C@H](O)O[C@@H]2CO)[C@H](O)[C@@H](O)[C@@H]1O [maltose] | improve the cellular viabilities |  |  |  | increases significantly |  |  | 
4 | OC[C@H]1O[C@@](CO)(O[C@H]2O[C@H](CO)[C@@H](O)[C@H](O)[C@H]2O)[C@@H](O)[C@@H]1O [sucrose] | improve the cellular viabilities |  |  |  | increases significantly | significantly enhances the transfection efficiency |  | 
5 | OC[C@H]1O[C@H](O[C@H]2O[C@H](CO)[C@@H](O)[C@H](O)[C@H]2O)[C@H](O)[C@@H](O)[C@@H]1O [trehalose] |  | significant increase in transfection efficiency | increase the luminescent intensity significantly | increases noticeably | increases significantly | significantly enhances the transfection efficiency | higher luminescent intensity | cellular viability analyzed by the MTT assay [6]: increases the cellular viability; enhancement of percentage of GFP positive cells [7]: ~13%; effect on GFP expression percentage (transfection efficiency) [8]: significantly increases the GFP expression percentage; GFP expression percentage ([8]; 180 mM trehalose): about 20%; GFP expression percentage relative to absence of disaccharides ([8]; 180 mM trehalose): about one fold higher; enhancement of percentage of GFP positive cells [9]: ~42%; enhancement of percentage of GFP expressed cells [10]: 37%; duration of transgene expression (muscle luminescence over days after injection) ([5]; naked gWiz-luciferase plasmid): higher luminescence intensities for a longer period of time; transfection efficiency versus control group without trehalose at the same amount of plasmid DNA ([5]; naked plasmid, 10 mM trehalose): significantly higher; effect of trehalose concentration on transfection efficiency (muscle luminescent intensity) ([5]; naked plasmid, trehalose between about 10 mM to 12.5 mM): increases significantly; enhancement of percentage of GFP positive cells [11]: about 50%; cellular viability analyzed by the MTT assay [12]: improve the cellular viabilities; enhancement of percentage of GFP expressed cells [13]: 32%
